These results are taken from patent US7446210B2, “Factor Xa compounds” (Janssen Pharmaceutica N.V., priority 2004, dated 2008).

Usually pKi stands for the Ki on a negative log10 scale, so that one unit is a factor of ten.

In assay [1] the target is T1, Factor Xa (Homo sapiens, UniProt P00742). Description: In vitro inhibition of purified enzymes, Ki determination: Factor Xa (hydrolysis of S-2765). It counts as biochemical. Further details: purchased Enzyme Research Laboratories (South Bend, Ind.). Conditions: purified activated human Factor X, substrate S-2765, 37° C., pH 7.5; read-out: KI FXa. The text has this:
(§1) Reagents: All buffer salts were obtained from Sigma Chemical Company (St. Louis, Mo.), and were of the highest purity available. The enzyme substrate, S-2765 (Z-D-Arg-Gly-Arg-p-nitroanilide) was obtained from DiaPharma (West Chester, Ohio). N-succinyl-Ala-Ala-Pro-Arg-p-nitroanilide (BACHEM L-1720) was obtained from BACHEM (King of Prussia, Pa.). N-p-Tosyl-Gly-Pro-Lys-p-nitroanilide (Sigma T6140), N-succinyl-Ala-Ala-Pro-Phe-p-nitroanilide (Sigma S7388), N-CBZ-Val-Gly-Arg-p-nitroanilide (Sigma C7271) was obtained from Sigma and N-succinyl-Ala-Ala-Pro-Val-p-nitroanilide (BACHEM L-1770) was obtained from BACHEM (King of Prussia, Pa.).
(§2) Human α-thrombin and human Factor Xa were obtained from Enzyme Research Laboratories (South Bend, Ind.). Human trypsin was obtained from Calbiochem (La Jolla, Calif.). Human plasmin was obtained from Enzyme Research Laboratories (South Bend, Ind.). Bovine a-chymotrypsin (Sigma C4129) and human kidney cell urokinase (Sigma U5004) was obtained from Sigma. Human leukocyte elastase was obtained from Elastin Products (Pacific, Mo.).
(§3) Ki Determinations: All assays are based on the ability of the test compound to inhibit the enzyme-catalyzed hydrolysis of a peptide p-nitroanilide substrate. In a typical Ki determination, substrate is prepared in DMSO, and diluted into an assay buffer consisting of 50 mM HEPES, pH 7.5, 200 mM NaCl, 0.05% n-octyl b-d-glucopyranoside. The final concentrations for each of the substrates are listed below. In general, substrate concentrations are lower than the experimentally determined value for Km. Test compounds are prepared as 10 mM solutions in DMSO. Dilutions are prepared in DMSO yielding 7 final concentrations encompassing a 200-fold concentration range. Enzyme solutions are prepared at the concentrations listed below in assay buffer.
(§4) Reactions were initiated by the addition of a […] aliquot of enzyme and the absorbance increase at 405 nm is recorded for 15 minutes. Data corresponding to less than 10% of the total substrate hydrolysis were used in the calculations. The ratio of the velocity (rate of change in absorbance as a function of time) for a sample containing no test compound is divided by the velocity of a sample containing test compound, and is plotted as a function of test compound concentration. The data are fit to a linear regression, and the value of the slope of the line calculated. The inverse of the slope is the experimentally determined apparent Ki value (Ki app). The Ki is calculated from the Ki app using the Ki factor specific for the assay, where Ki=Ki app×Ki factor, or Ki=Ki app×(1/ (1+[S]/Km)).
Substrate solutions were prepared at a concentration of 107 mM in assay buffer. Final DMSO concentration was 3.3%. Purified activated human Factor X was diluted into assay buffer to a concentration of 16 nM. Final reagent concentrations were: [Factor Xa]=0.53 nM, [S-2765]=100 mM.

For the next assay, the target named is T2, human α-thrombin (Homo sapiens, UniProt P00734).
T2 construct: Purified human a-thrombin was diluted into assay buffer; purchased Enzyme Research Laboratories (South Bend, Ind.)
Description: In vitro inhibition of purified enzymes, Ki determination: thrombin (hydrolysis of N-succinyl-Ala-Ala-Pro-Arg-p-nitroanilide). The class given is biochemical. Conditions: substrate N-succinyl-Ala-Ala-Pro-Arg-p-nitroanilide, 37° C., pH 7.5.
Source text: as §1, §2, §3, §4
Thrombin: Thrombin activity was assessed as the ability to hydrolyze the substrate N-succinyl-Ala-Ala-Pro-Arg-p-nitroanilide (Km=320 mM, Ki factor=0.76). Substrate solutions were prepared at a concentration of 107 mM in assay buffer. Final DMSO concentration was 4.3%. Purified human a-thrombin was diluted into assay buffer to a concentration of 33 nM. Final reagent concentrations were: [thrombin]=1.1 nM, [substrate N-succinyl-Ala-Ala-Pro-Arg-p-nitroanilide]=100 mM.

For another assay, the target named is T3, human trypsin.
T3 construct: Purified human trypsin was diluted into assay buffer to a concentration of 10 nM
Description: In vitro inhibition of purified enzymes, Ki determination: trypsin (hydrolysis of S-2765). Conditions: substrate S-2765, 37° C., pH 7.5. It counts as biochemical.
Source text: as §1, §2, §3, §4
Trypsin: Trypsin activity was assessed as the ability to hydrolyze the substrate S-2765 (Z-D-Arg-Gly-Arg-p-nitroanilide, Km=61 mM, Ki factor=0.50). Substrate solutions were prepared at a concentration of 64 mM in assay buffer. Final DMSO concentration was 3.3%. Purified human trypsin was diluted into assay buffer to a concentration of 10 nM. Final reagent concentrations were: [Trypsin]=0.33 nM, [S-2765]=60 mM.

Assay [2] concerns the target T1, Factor Xa. Conditions: background statement; cited from earlier work.

pKi: −log10 of the molar value. Counter-ions that a name gives are not always drawn. Like-named read-outs stand apart in the source and are kept apart here.

T1 sequence (P00742 235-488 limits assumed): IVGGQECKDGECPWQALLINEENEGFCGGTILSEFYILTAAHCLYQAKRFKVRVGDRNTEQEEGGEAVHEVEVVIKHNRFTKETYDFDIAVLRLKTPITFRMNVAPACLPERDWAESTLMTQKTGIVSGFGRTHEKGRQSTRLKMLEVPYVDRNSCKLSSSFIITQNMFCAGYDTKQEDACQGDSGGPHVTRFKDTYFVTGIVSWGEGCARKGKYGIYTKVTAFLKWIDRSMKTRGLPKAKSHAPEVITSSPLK
T1 sequence (P00742 41-179 partner limits assumed): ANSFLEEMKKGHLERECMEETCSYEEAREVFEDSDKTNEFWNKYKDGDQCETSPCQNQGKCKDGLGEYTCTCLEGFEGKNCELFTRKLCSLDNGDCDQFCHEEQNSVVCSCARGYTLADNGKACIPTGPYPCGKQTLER

Regarding `NC(=O)c1nn(-c2ccc3onc(N)c3c2)c2c(F)c(-c3ccc(N4CCOCC4=O)cn3)ccc12` [Example 43, 1-(3-Amino-benzo[d]isoxazol-5-yl)-7-fluoro-6-[5-(3-oxo-morpholin-4-yl)-pyridin-2-yl]-1H-indazole-3-carboxylic acid amide; methanesulfonic acid salt], the values for the negative logarithm of the Ki (pKi) on Factor Xa [1], at human α-thrombin and on human trypsin were 8.22, less than 4.82 and less than 5.00, respectively.
On the same counts, the results for `CN(C)CCCN(c1ccncc1)c1ccc(-c2ccc3c(C(N)=O)nn(-c4ccc5onc(N)c5c4)c3c2F)c(F)c1` [Example 59, 1-(3-Amino-benzo[d]isoxazol-5-yl)-6-{4-[(3-dimethylamino-propyl)-pyridin-4-yl-amino]-2-fluoro-phenyl}-7-fluoro-1H-indazole-3-carboxamide dimesylate salt] are 8.30, less than 4.82 and less than 5.00.
On the same counts, the results for `CN(C)Cc1cnccc1-c1ccc(-c2ccc3c(C(N)=O)nn(-c4ccc5onc(N)c5c4)c3c2F)c(F)c1` [Example 66, 1-(3-Amino-benzo[d]isoxazol-5-yl)-6-[4-(3-dimethylaminomethyl-pyridin-4-yl)-2-fluoro-phenyl]-7-fluoro-1H-indazole-3-carboxylic acid amide] are 8.70, less than 4.82 and less than 5.00.
Consider `Cc1nn(-c2cccc(CN)c2)c2c(F)c(-c3ccc(N(C)c4ccncc4)cc3F)ccc12` [Example 35], for which the results for the pKi on Factor Xa [1], at human α-thrombin and on human trypsin were 7.48, less than 4.82 and 5.54, respectively.
The like results for `Cc1nn(-c2cccc(CN)c2)c2c(F)c(-c3ccc(-c4ccccc4S(C)(=O)=O)cc3F)ccc12` [Example 82, 3-[7-Fluoro-6-(3-fluoro-2′-methanesulfonyl-biphenyl-4-yl)-3-methyl-indazol-1-yl]-benzylamine] were, in that order, 7.35, less than 4.82 and 5.82.
For the molecule `COc1cccc(-n2nc(C)c3ccc(-c4ccc(N5CCCCC5=O)cc4)c(F)c32)c1` [Example 4, 1-{4-[7-fluoro-1-(3methoxy-phenyl)-3-methyl-1H-indazol-6-yl]-phenyl}-piperidin-2-one], the pKi at Factor Xa [1] was 6.18.
In the case of `Cc1nn(-c2cccc(CN)c2)c2c(F)c(-c3ccc(C#Cc4ccc5nc(N)sc5c4)cc3)ccc12` [Example 15, 6{4-1-(3-Aminomethyl-phenyl)-7-fluoro-3-methyl-1H-indazol]-phenylethynyl-benzothiazol-2-ylamine], the negative-log Ki (pKi) was 5.55 at Factor Xa [1], less than 4.82 on human α-thrombin and 5.80 on human trypsin.
As to “tick anticoagulant peptide (YNRLCIKPRDWIDECDSNEGGERAYFRNGKGGCDSFWICPEDHTGADYYSSYRDCFNACI; UniProt P17726 1-60, looked up) [TAP]”, in the assay with Factor Xa [2], the negative logarithm of the Ki (pKi) is roughly 9.30.
Turning to `O=C1CCCCN1c1ccc(-c2ccc3c(C(F)(F)F)nn(-c4cccc(Cl)c4)c3c2F)c(F)c1` [Example 95, 1-{4-[1-(3-Chloro-phenyl)-7-fluoro-3-trifluoromethyl-1H-indazol-6-yl]-3-fluoro-phenyl}-piperidin-2-one], the pKi on Factor Xa [1] was 6.47; on human α-thrombin, less than 4.82; at human trypsin, less than 5.00.
Take antistasin [ATS]: the negative-log Ki (pKi) at Factor Xa [2] is 10.30.
With `Cc1nn(-c2ccc3ccnc(N)c3c2)c2c(F)c(-c3ccc(-c4ccccc4S(C)(=O)=O)cc3F)ccc12` [Example 93, 7-[7-Fluoro-6-(3-fluoro-2′-methanesulfonyl-biphenyl-4-yl)-3-methyl-indazol-1-yl]-isoquinolin-1-ylamine], the negative logarithm of the Ki (pKi) is 7.34 at Factor Xa [1], less than 4.82 on human α-thrombin and less than 5.00 on human trypsin.
Take `Cc1nn(-c2ccc3onc(N)c3c2)c2c(F)c(-c3ccc(-n4ccccc4=O)cc3F)ccc12` [Example 25, 1-{4-[1-(3-Amino-benzo[a]isoxazol-5-yl)-7-fluoro-3-methyl-1H-indazol-6-yl]-3-fluoro-phenyl}-1H-pyridin-2-one]: the pKi is 7.40 on Factor Xa [1], less than 4.82 on human α-thrombin and less than 5.00 at human trypsin.
The like results for `Cc1nn(-c2ccc3onc(N)c3c2)c2c(F)c(-c3ccc(N4CCCCC4=O)cc3)ccc12` [Example 86, 1-{4-[1-(3-Amino-benzo[d]isoxazol-5-yl)-7-fluoro-3-methyl-1H-indazol-6-yl]-phenyl}-piperidin-2-one] were, in that order, 7.32, less than 4.82 and less than 5.00.
The like results for `Cc1nn(-c2cccc(CN)c2)c2c(F)c(-c3ccc(N4CCCCC4=O)cc3)ccc12` [Example 6, 1-{4-[1-(3-Aminomethyl-phenyl)7-fluoro-1-3-methyl-1H-indazol-6-yl]-phenyl}-piperidin-2-one] were, in that order, 6.92, less than 4.82 and less than 5.00.
The like results for `Cc1nn(-c2cccc(CN)c2)c2c(F)c(-c3ccc(N4CCCC4=O)cc3)ccc12` [Example 7, 1-{4-[1-(3-Aminomethyl-phenyl)-7-fluoro-1-3-methyl-1H-indazol-6-yl]-phenyl}-pyrolidin-2-one] were, in that order, 6.66, less than 4.82 and 6.15.
For the molecule `Cc1nn(-c2cccc(C(=N)N)c2)c2c(F)c(-c3ccc(N4CCCCC4=O)cc3F)ccc12` [Example 75, 3-{7-Fluoro-6-[2-fluoro-4-(2-oxo-piperidin-1-yl)-phenyl]-3-methyl-indazol-1-yl}-benzamidine], the negative-log Ki (pKi) at Factor Xa [1] was 9.00; on human α-thrombin, 5.80; at human trypsin it was 6.85.
